In patent US7943296B2, “Methods of screening using a natriuretic peptide receptor” (Oregon Health & Science University, priority 2005, dated 2011):

Test system: NPRA
Experiment: [35S]ATPγS incorporation into NPRA (receptor phosphorylation) in CFs
Type: cell-based, rat
Conditions: ANP 5 minutes, KT5823 1 μM or expressed fragment
Experimental: To identify receptor phosphorylation by PKG, ^[35S]ATPγS was employed as a substrate. [^35S] incorporation into NPRA was analyzed according to the method previously described (Joubert et al., Biochem. 40:11096-105, 2001). Briefly, the treated CFs were scraped into 100 μl ice-cold incubation buffer (25 mM HEPES, pH 7.4, 50 mM NaCl, 5 mM MgCl2, 0.2 μM okadaic acid, 1 mM Na3VO4, 10 mM NaH2PO4, 10 mM NaF, and protease inhibitors (complete mini-tablet, Roche) and lysed by repeated passage through a 22-gauge needle. Lysates were added to incubation buffer containing 1 μCi [^35S]ATPγS (specific activity >1000 Ci/mmol), final volume of 200 μl, incubated at 37° C. for 30 minutes. Proteins were analyzed by SDS-PAGE (7.5%) and subsequent autoradiography.

## sNRF^(806-900): intracellular NPRA fragment, residues 806-900, excludes the cyclase-containing domain; shortest fragment observed to associate with PKG
  ANP-induced NPRA phosphorylation: reduced ANP-induced NPRA phosphorylation to control levels
